# Test results taken from patent publication US20240316141A1, “The Use of Thiourea and Thiourea Derivatives As Potentiators of Antibacterial Activity of Peptoids” (The Board of Trustees of the Leland Stanford Junior …, priority 2021, published 2024).
# Assays:
# [1] = system: bacterial growth; test: MIC of peptoid in the presence and absence of urea, 24 hour incubation; format: cell-based; settings: MIC of TM5 in presence vs absence of urea
# Procedure: (§1) FIG. 8. The minimum inhibitory concentration (MIC) of peptoid (TM5) in the presence and absence of urea was examined. MIC was defined as the lowest concentration of peptoid that will inhibit the bacterial growth (i.e., increasing absorbance at 600 nm) after a 24 hour incubation.
# [2] = system: bacterial growth; test: MIC of different peptoids in the presence and absence of thiourea; format: cell-based; settings: presence vs absence of thiourea; FIGS. 6A-6E
# [3] = system: Pseudomonas aeruginosa; test: MIC of peptoid in the presence and absence of thiourea, 24 h incubation, absorbance at 600 nm; format: cell-based; settings: presence vs absence of thiourea
# Procedure: FIG. 1. The minimum inhibitory concentration (MIC) of peptoid (TM5) in the presence and absence of thiourea was examined. MIC was defined as the lowest concentration of peptoid that will inhibit the bacterial growth (i.e., increasing absorbance at 600 nm) after 24 h incubation.
# [4] = system: Klebsiella pneumoniae; test: as above; format: cell-based; settings: Klebsiella pneumoniae (ciprofloxacin-resistant), presence vs absence of thiourea
# Procedure: FIG. 2. The minimum inhibitory concentration (MIC) of peptoid (TM5) in the presence and absence of thiourea was examined. MIC was defined as the lowest concentration of peptoid that will inhibit the bacterial growth (i.e., increasing absorbance at 600 nm) after 24 h incubation.
# [5] = system: Staphylococcus aureus; test: as above; format: cell-based; settings: presence vs absence of thiourea
# Procedure: FIG. 3. The minimum inhibitory concentration (MIC) of peptoid (TM5) in the presence and absence of thiourea was examined. MIC was defined as the lowest concentration of peptoid that will inhibit the bacterial growth (i.e., increasing absorbance at 600 nm) after 24 h incubation.
# [6] = system: PA01 ofloxacin induced persister cells; test: Eradication of ofloxacin induced persister cells; format: cell-based, Pseudomonas aeruginosa; settings: PA01 persister cells from stationary phase culture treated with ofloxacin 5 μg/ml for 24 h
# [7] = system: bacterial growth; test: MIC of antimicrobial peptide in the presence and absence of thiourea, 24 hour incubation; format: cell-based; settings: presence vs absence of thiourea
# Procedure: as §1, with “7.” for “8.”, “an antimicrobial peptide (LL-37)” for “peptoid (TM5)”, “thiourea” for “urea”, “an antimicrobial peptide” for “peptoid”
molecule,measurement,setting,value
NC(N)=O [urea],synergy of urea with peptoid TM5 (MIC),[1],did not synergize
H-Ntridec-(NLys-Nspe-Nspe(p-Br))2-NLys-NH2 [TM20],effect of thiourea on antimicrobial activity (MIC) of different peptoids,[2],increases antimicrobial activity
H-Ntridec-NLys-Nspe-Nspe-NLys-NH2 [TM5],effect of thiourea on minimum inhibitory concentration (MIC) / antimicrobial activity of peptoid,[3],increases antimicrobial activity
same,effect of thiourea on minimum inhibitory concentration (MIC) / antimicrobial activity of peptoid,[4],increases antimicrobial activity
same,effect of thiourea on minimum inhibitory concentration (MIC) / antimicrobial activity of peptoid,[5],increases antimicrobial activity
same,effect of thiourea on persister eradication capability,[6],enhance the persister eradication capability
same,effect of thiourea on antimicrobial activity (MIC) of different peptoids,[2],increases antimicrobial activity
H—(NLys-Nspe(p-Br)-Nspe(p-Br))2—NH2 [TM4],effect of thiourea on antimicrobial activity (MIC) of different peptoids,[2],increases antimicrobial activity
H—(NLys-Nspe-Nspe)3-NLys-Nspe-NLys-NH2 [TM16],effect of thiourea on antimicrobial activity (MIC) of different peptoids,[2],increases antimicrobial activity
LL-37: antimicrobial peptide (LL-37),synergy of thiourea with antimicrobial peptide (MIC),[7],did not synergize
